Measured values reported in ChEMBL document CHEMBL3864139, “Phenylindenone isomers as divergent modulators of p38α MAP kinase” (Bioorg Med Chem Lett, 2016).
Active and inactive are the calls of the source. The calls are words filed in the database; no cut-off is given here.

Tests used:
[1] = molecular target: T1, Mitogen-activated protein kinase 14 (Homo sapiens, UniProt Q16539); assay: Activation of human recombinant full length GST-tagged MAPK14 expressed in Escherichia coli assessed as increase in MAPK14 phosphorylation at 10 to 10000 nM in presence of 500 uM of ATP by direct Z-LITE assay
[2] = molecular target: T1, Mitogen-activated protein kinase 14; assay: Activation of human recombinant full length GST-tagged MAPK14 expressed in Escherichia coli assessed as increase in MAPK14 phosphorylation at 10 uM in presence of 500 uM of ATP by direct Z-LITE assay relative to control
[3] = molecular target: T1, Mitogen-activated protein kinase 14; assay: Inhibition of human recombinant full length GST-tagged MAPK14 phosphorylation expressed in Escherichia coli in presence of 500 uM of ATP by direct Z-LITE assay
[4] = molecular target: T1, Mitogen-activated protein kinase 14; assay: Inhibition of human recombinant full length GST-tagged MAPK14 phosphorylation expressed in Escherichia coli in presence of 100 uM of ATP by direct Z-LITE assay

T1 sequence (Q16539 whole entry): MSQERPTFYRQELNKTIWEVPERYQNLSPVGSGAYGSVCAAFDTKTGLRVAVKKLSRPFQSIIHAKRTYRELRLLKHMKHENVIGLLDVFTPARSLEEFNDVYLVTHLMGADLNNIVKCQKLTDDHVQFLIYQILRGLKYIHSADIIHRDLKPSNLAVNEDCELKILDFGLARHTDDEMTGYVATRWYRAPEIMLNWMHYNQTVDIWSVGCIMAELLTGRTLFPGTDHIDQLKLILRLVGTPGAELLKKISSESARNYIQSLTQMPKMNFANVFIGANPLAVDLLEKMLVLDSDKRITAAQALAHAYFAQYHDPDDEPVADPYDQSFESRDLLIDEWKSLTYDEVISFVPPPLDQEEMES

| Activity [1] | Activity [2] [%] | IC50 [3] [nM] | IC50 [4] [nM] | Structure (SMILES) |
| --- | --- | --- | --- | --- |
| Active | 40 to 50 |  |  | O=C1C(c2ccncc2)=C(c2ccc(F)cc2)c2ccccc21 |
|  |  | 1350 | 899 | O=C1C(c2ccc(F)cc2)=C(c2ccncc2)c2ccccc21 |
